Measurements as given in patent US20240116985A1, “STAPLED PEPTIDES AND METHODS THEREOF” (priority 2020, published 2024).
Where two headings read alike, the source gives them in different places.

What was measured:
[1] = target: T1, beta-catenin/TCF4 engagement (Homo sapiens, UniProt P35222); assay: Nano-BRET target engagement assay (B-cat-Halo & TCF4-Luc in HEK293 cells); format: cell-based; details: read-out: NanoBRET Abs IC50
T1 construct: expressed in transfected cells; host or cells: HEK293
T1 sequence (P35222 1-781): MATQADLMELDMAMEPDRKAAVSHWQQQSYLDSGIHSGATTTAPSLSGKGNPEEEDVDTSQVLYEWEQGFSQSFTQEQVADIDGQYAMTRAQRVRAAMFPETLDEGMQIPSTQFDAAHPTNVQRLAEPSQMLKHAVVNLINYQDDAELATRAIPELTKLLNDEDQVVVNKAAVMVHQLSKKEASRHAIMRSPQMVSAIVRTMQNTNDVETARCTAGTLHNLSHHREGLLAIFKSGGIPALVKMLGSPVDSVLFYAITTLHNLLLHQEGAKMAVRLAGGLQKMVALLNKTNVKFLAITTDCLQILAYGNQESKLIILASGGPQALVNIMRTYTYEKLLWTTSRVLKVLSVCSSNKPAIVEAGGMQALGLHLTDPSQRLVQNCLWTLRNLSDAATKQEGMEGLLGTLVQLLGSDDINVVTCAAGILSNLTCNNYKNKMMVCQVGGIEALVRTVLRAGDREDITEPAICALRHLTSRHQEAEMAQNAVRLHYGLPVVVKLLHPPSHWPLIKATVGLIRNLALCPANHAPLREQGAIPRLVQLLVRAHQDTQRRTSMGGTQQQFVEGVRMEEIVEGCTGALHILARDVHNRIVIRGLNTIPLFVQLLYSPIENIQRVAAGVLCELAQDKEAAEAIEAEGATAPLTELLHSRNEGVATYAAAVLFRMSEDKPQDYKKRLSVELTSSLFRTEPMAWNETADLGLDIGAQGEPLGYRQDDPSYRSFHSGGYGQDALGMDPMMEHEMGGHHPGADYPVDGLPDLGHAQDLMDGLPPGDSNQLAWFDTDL

[2] = target: T2, full-length beta-Catenin (Uniprot ID P35222) (Homo sapiens, UniProt P35222); assay: Fluorescence polarization IC50 (beta-catenin / 5FAM-TCF4 10-53 competition); format: binding
T2 construct: 10 nM full-length beta-Catenin (Uniprot ID P35222)
T2 sequence (P35222 1-781): T1 sequence (P35222 1-781)

[3] = fluorescence polarization; read-out: beta-Catenin FP IC50

Q: How did the IC50 [1] turn out when CC(=O)N1CCC[C@]12CC=CCCCC1(CCCC=CCCCOC(=O)N3CC[C@@](C(=O)N[C@@H](Cc4ccsc4)C(=O)N[C@@H](Cc4csc5ccccc45)C(=O)N[C@@H](C)C(N)=O)(C3)NC(=O)[C@H](CC(C)C)NC(=O)[C@H](Cc3ccccc3)NC(=O)[C@H](C)NC(=O)[C@H](CC(=O)N(C)C)NC(=O)[C@H](Cc3cccc(C(=O)O)c3)NC(=O)[C@H](CC(=O)O)NC1=O)NC(=O)[C@H](CC(C)(C)C)NC(=O)[C@H](CC(=O)O)NC2=O (stereo partly drawn) [I-2188, Ac-PL3-Asp-Npg-B5-Asp-3COOHF-Me2Asn-Ala-Phe-Leu-PyrS2-3Thi-BztA-Ala-NH2] was run?
A: 7.6 µM

Q: And the IC50 [2, 3]?
A: 11 nM

Q: With CC(=O)N1CCC[C@]12CC=CCCCC1(CCCC=CCCCOC(=O)N3CC[C@@](C(=O)N[C@@H](Cc4ccsc4)C(=O)N[C@@H](Cc4csc5ccccc45)C(=O)N[C@@H](CCC(N)=O)C(N)=O)(C3)NC(=O)[C@H](CC(C)C)NC(=O)[C@H](Cc3ccccc3)NC(=O)[C@H](C)NC(=O)[C@H](C)NC(=O)[C@H](CCC(=O)OCCSSc3ccccc3)NC(=O)[C@H](CC(=O)O)NC1=O)NC(=O)[C@H](CC(C)(C)C)NC(=O)[C@H](CC(=O)O)NC2=O (stereo partly drawn) [I-1958, Ac-PL3-Asp-Npg-B5-Asp-[EtSSPh]GluE-Ala-Ala-Phe-Leu-PyrS2-3Thi-BztA-Gln-NH2] as the compound, how does the IC50 [1] read?
A: > 20 µM

Q: What about the IC50 ([2]; read-out: beta-Catenin FP IC50; fluorescence polarization) of the same compound?
A: 1540 nM

Q: What does the source list for CC(=O)N1CCC[C@]12CC=CCCCC1(CCCC=CCCCOC(=O)N3CC[C@@](C(=O)N[C@@H](Cc4ccsc4)C(=O)N[C@@H](Cc4csc5ccccc45)C(=O)N[C@@H](CCC(N)=O)C(N)=O)(C3)NC(=O)[C@H](CC(C)C)NC(=O)[C@H](Cc3ccccc3)NC(=O)[C@H](C)NC(=O)[C@H](C)NC(=O)[C@H](Cn3cc(C(C)(C)C(=O)O)nn3)NC(=O)[C@H](CC(=O)O)NC1=O)NC(=O)[C@H](CC(C)(C)C)NC(=O)[C@H](CC(=O)O)NC2=O (stereo partly drawn) [I-2085, Ac-PL3-Asp-Npg-B5-Asp-[CMe2CO2H]TriAzDap-Ala-Ala-Phe-Leu-PyrS2-3Thi-BztA-Gln-NH2]?
A: IC50 [1]: 6.2 µM; IC50 [2, 3]: 5 nM

Q: With CC(=O)N1CCC[C@]12CC=CCCCC1(CCCC=CCCCOC(=O)N3CCC(C(=O)N[C@@H](Cc4ccsc4)C(=O)N[C@@H](Cc4csc5ccccc45)C(=O)N[C@@H](C)C(N)=O)(CC3)NC(=O)[C@H](CC(C)C)NC(=O)[C@H](Cc3ccccc3)NC(=O)[C@H](C)NC(=O)[C@H](CCC(N)=O)NC(=O)[C@H](Cc3cccc(C(=O)O)c3)NC(=O)[C@H](CC(=O)O)NC1=O)NC(=O)[C@H](CC(C)(C)C)NC(=O)[C@H](CC(=O)O)NC2=O (stereo partly drawn) [I-2593, Ac-PL3-Asp-Npg-B5-Asp-3COOHF-Gln-Ala-Phe-Leu-SPip2-3Thi-BztA-Ala-NH2] as the compound, how does the IC50 [1] read?
A: 29.4 µM

Q: And the IC50 [2, 3]?
A: 27 nM

Q: What does the source list for CC(=O)N1CCC[C@]12CC=CCCCC1(CCCC=CCCCOC(=O)N3CC[C@@](C(=O)N[C@@H](Cc4ccccc4C(F)(F)F)C(=O)N[C@@H](Cc4csc5ccccc45)C(=O)N[C@H](C)C(N)=O)(C3)NC(=O)[C@H](Cc3ccccc3)NC(=O)[C@H](Cc3ccccc3)NC(=O)[C@H](C)NC(=O)[C@H](C)NC(=O)[C@H](Cc3cccc(C(=O)O)c3)NC(=O)[C@H](CC(=O)O)NC1=O)NC(=O)[C@H](CC(C)(C)C)NC(=O)[C@H](CC(=O)O)NC2=O (stereo partly drawn) [I-2095, Ac-PL3-Asp-Npg-B5-Asp-3COOHF-Ala-Ala-Phe-Phe-PyrS2-2F3MeF-BztA-dAla-NH2]?
A: IC50 [1]: 10.5 µM; IC50 [2, 3]: 78 nM

Q: How did the IC50 ([1]; absolute IC50) turn out when CC(=O)N1CCC[C@]12CC=CCCCCC1(CCCCC=CCCCOC(=O)N3CC[C@@](C(=O)N[C@@H](Cc4ccccc4C(F)(F)F)C(=O)N[C@@H](Cc4csc5ccccc45)C(=O)N[C@@H](C)C(N)=O)(C3)NC(=O)[C@H](CC(C)C)NC(=O)[C@H](Cc3ccccc3)NC(=O)[C@H](C)NC(=O)[C@H](CCC(N)=O)NC(=O)[C@H](Cc3cccc(C(=O)O)c3)NC(=O)[C@H](CC(=O)O)NC1=O)NC(=O)[C@H](CC(C)(C)C)NC(=O)[C@H](CC(=O)O)NC2=O (stereo partly drawn) [I-2515, Ac-PL3-Asp-Npg-B6-Asp-3COOHF-Gln-Ala-Phe-Leu-PyrS2-2F3MeF-BztA-Ala-NH2] was run?
A: > 20 µM

Q: What about the IC50 [2, 3] of the same compound?
A: 1610 nM

Q: For C[C@@H]1NC(=O)[C@H](C)NC(=O)[C@H](CC(=O)O)NC(=O)[C@H](CC(=O)O)NC(=O)C2(CCCC=CCCCOC(=O)N3CC[C@@](C(=O)N[C@@H](Cc4ccsc4)C(=O)N[C@@H](Cc4csc5ccccc45)C(=O)N[C@@H](CCC(N)=O)C(N)=O)(C3)NC(=O)[C@H](CC(N)=O)NC(=O)[C@H](Cc3ccccc3)NC1=O)CCCC=CCOc1cccc(c1)C(=O)N[C@@H](CC(=O)O)C(=O)N[C@@H](CC(C)(C)C)C(=O)N2 (stereo partly drawn) [I-2306, BzAm3Oallyl-Asp-Npg-B5-Asp-Asp-Ala-Ala-Phe-Asn-PyrS2-3Thi-BztA-Gln-NH2], which IC50 ([1]; absolute IC50) is on record?
A: > 20 µM

Q: And the IC50 [2, 3]?
A: 45 nM

Q: How did the IC50 ([1]; absolute IC50) turn out when CC(=O)N1CCC[C@]12CC=CCCCC1(CCCC=CCCCOC(=O)N3CC[C@@](C(=O)N[C@@H](Cc4ccsc4)C(=O)N[C@@H](Cc4csc5ccccc45)C(=O)N[C@@H](CCC(N)=O)C(N)=O)(C3)NC(=O)[C@H](CC(C)C)NC(=O)[C@H](Cc3ccccc3)NC(=O)[C@H](C)NC(=O)[C@H](C)NC(=O)[C@H](CC(N)=O)NC(=O)[C@H](CC(N)=O)NC1=O)NC(=O)[C@H](CC(C)(C)C)NC(=O)[C@H](CC(=O)O)NC2=O (stereo partly drawn) [I-1557, Ac-PL3-Asp-Npg-B5-Asn-Asn-Ala-Ala-Phe-Leu-PyrS2-3Thi-BztA-Gln-NH2] was run?
A: > 20 µM

Q: And the IC50 [2, 3]?
A: 342 nM

Q: What does the source list for CC(=O)N1CCC[C@]12CC=CCCCC1(CCCC=CCCCOC(=O)N3CC[C@@](C(=O)N[C@@H](Cc4ccccc4Cl)C(=O)N[C@@H](Cc4csc5ccccc45)C(=O)N[C@@H](CO)C(N)=O)(C3)NC(=O)[C@H](CC(C)C)NC(=O)[C@H](Cc3ccccc3)NC(=O)[C@H](C)NC(=O)[C@H](CO)NC(=O)[C@H](Cc3cccc(C(=O)O)c3)NC(=O)[C@H](CC(=O)O)NC1=O)NC(=O)[C@H](CC(C)(C)C)NC(=O)[C@H](CC(=O)O)NC2=O (stereo partly drawn) [I-1901, Ac-PL3-Asp-Npg-B5-Asp-3COOHF-Ser-Ala-Phe-Leu-PyrS2-2C1F-BztA-Ser-NH2]?
A: IC50 [1]: 4.9 µM; IC50 [2, 3]: 34 nM

Q: With CC(=O)N1CCC[C@]12CC=CCCCC1(CCCC=CCCCOC(=O)N3CC[C@@](C(=O)N[C@@H](Cc4ccsc4)C(=O)N[C@@H](Cc4csc5ccccc45)C(=O)N[C@@H](CCC(N)=O)C(N)=O)(C3)NC(=O)[C@H](CC(C)C)NC(=O)[C@H](Cc3ccccc3)NC(=O)[C@H](CCN3CCOCC3)NC(=O)[C@H](C)NC(=O)[C@H](CC(=O)O)NC(=O)[C@H](CC(=O)O)NC1=O)NC(=O)[C@H](CC(C)(C)C)NC(=O)[C@H](CC(=O)O)NC2=O (stereo partly drawn) [I-1504, Ac-PL3-Asp-Npg-B5-Asp-Asp-Ala-MorphAbu-Phe-Leu-PyrS2-3Thi-BztA-Gln-NH2] as the compound, how does the IC50 ([1]; absolute IC50) read?
A: > 20 µM

Q: And the IC50 [2, 3]?
A: 46 nM

Q: Which IC50 ([1]; absolute IC50) does the source give for CC(=O)N1CCC[C@]12CC=CCCCC1(CCCC=CCCCOC(=O)N3CC[C@@](C(=O)N[C@@H](Cc4ccsc4)C(=O)N[C@@H](Cc4csc5ccccc45)C(=O)N[C@@H](CCC(N)=O)C(N)=O)(C3)NC(=O)[C@H](CC(C)C)NC(=O)[C@H](Cc3ccccc3)NC(=O)[C@H](C)NC(=O)[C@H](C)NC(=O)[C@H](CN(C)CC(=O)O)NC(=O)[C@H](CC(=O)O)NC1=O)NC(=O)[C@H](CC(C)(C)C)NC(=O)[C@H](CC(=O)O)NC2=O (stereo partly drawn) [I-1631, Ac-PL3-Asp-Npg-B5-Asp-[Me]GA-Ala-Ala-Phe-Leu-PyrS2-3Thi-BztA-Gln-NH2] here?
A: 30.1 µM

Q: What about the IC50 [2, 3] of the same compound?
A: 10 nM

Q: Which IC50 [1] does the source give for CC(=O)N1CCC[C@]12CC=CCCCC1(CCCC=CCCCOC(=O)N3CC[C@@](C(=O)N[C@@H](Cc4ccsc4)C(=O)N[C@@H](Cc4csc5ccccc45)C(=O)N[C@@H](CCC(N)=O)C(N)=O)(C3)NC(=O)[C@H](Cn3cc(CN4CCOCC4)nn3)NC(=O)[C@H](Cc3ccccc3)NC(=O)[C@H](C)NC(=O)[C@H](C)NC(=O)[C@H](CN(CC(=O)O)CC(F)(F)F)NC(=O)[C@H](CC(=O)O)NC1=O)NC(=O)[C@H](CC(C)(C)C)NC(=O)[C@H](CC(=O)O)NC2=O (stereo partly drawn) [I-1867, Ac-PL3-Asp-Npg-B5-Asp-TfeGA-Ala-Ala-Phe-[MorphCH2]TriAzDap-PyrS2-3Thi-BztA-Gln-NH2] here?
A: 16.4 µM

Q: And the IC50 [2, 3]?
A: 7 nM

Q: With CC(=O)N1CCC[C@]12CC=CCCCC1(CCCC=CCCCOC(=O)N3CC[C@@](C(=O)N[C@@H](Cc4ccccc4C(F)(F)F)C(=O)N[C@@H](Cc4csc5ccccc45)C(=O)N[C@@H](CCC(=O)N4CCOCC4)C(N)=O)(C3)NC(=O)[C@H](CCC(=O)N3CCOCC3)NC(=O)[C@H](Cc3ccccc3)NC(=O)[C@H](C)NC(=O)[C@H](C)NC(=O)[C@H](Cc3cccc(C(=O)O)c3)NC(=O)[C@H](CC(=O)O)NC1=O)NC(=O)[C@H](CC(C)(C)C)NC(=O)[C@H](CC(=O)O)NC2=O (stereo partly drawn) [I-2547, Ac-PL3-Asp-Npg-B5-Asp-3COOHF-Ala-Ala-Phe-MorphGln-PyrS2-2F3MeF-BztA-MorphGln-NH2] as the compound, how does the IC50 ([1]; absolute IC50) read?
A: 3.5 µM

Q: What about the IC50 [2, 3] of the same compound?
A: 13 nM
